Values after ≈ are worked out from the molar mass of the structure shown. Like-named read-outs stand apart in the source and are kept apart here.
Columns and labels:
[1] = tested on: IGROV-1/Pt (human ovarian carcinoma); assay: Antiproliferative activity, IGROV-1/Pt; assay type: cell-based
Experimental: (§1) Drugs were dissolved in DMSO and freshly diluted in medium before use. The antiproliferative activity was evaluated on A2780 (human ovarian carcinoma) and its derived drug-resistant cell lines (A2780/DX, A2780/DDP), IGROV-1/Pt1 (human ovarian carcinoma), GBM (human glioblastoma) and MX-1 (human mammary carcinoma). All cell lines, except MX-1, were maintained in RPMI 1640 (Bio-Whittaker, Verviers, Belgium) supplemented with 10% fetal calf serum (Life Technologies, Gaithersburg, MD, USA). MX-1 cells were maintained in McCoy's medium (Life Technologies, Gaithersburg, MD, USA) supplemented with 10% fetal calf serum. For experiments, all cell lines were seeded into six-well plates in duplicate and treated, 24 or 72 h (only MX-1 cells) after seeding, with solvent or different concentrations of taxanes. Adherent cells were counted 72 h after the beginning of treatment, by a cell counter (Coulter Electronics, Luton, UK) or detected by the Sulforhodamine B colorimetric assay (only GBM cells). The IC50 was defined as the drug concentration causing a 50% decrease in cell number over that of untreated controls.

A2780/DDP cells = assay: Antiproliferative activity, A2780/DDP; assay type: cell-based; settings: Homo sapiens, 72 h treatment, cell counting, mean±s.d., three experiments
Experimental: as §1

[2] = Pharmacokinetic study, plasma levels by HPLC; assay type: in vivo, CDF1 mice; settings: female, CDF1, mouse
Experimental: In order to assess the bioavailability of IDN 5390, a pharmaco-kinetic study was performed in female CDF1 mice (Charles River Italia, Calco, Italy). IDN 5390, formulated in Polysorbate 80 and diluted in 0.9% NaCl solution, immediately before treatment, was administered p.o. or i.v. at the dose of 120 mg kg^−1. Blood samples were taken (four mice per group) from the retro-orbital plexus, under diethylether anaesthesia at 5, 15 and 30 min and at 1, 2 and 4 h.
IDN 5390 levels were determined in plasma according to the high-performance liquid chromatography (HPLC) method of [Zaffaroni et al (2002)]. Briefly, plasma samples (0.4 ml) were spiked with 1 μg IDN 5517, as internal standard, and with 0.7 ml of 0.2 M ammonium acetate buffer, pH 4.5, and extracted by solid-phase extraction on a cyano cartridge (Waters, Millford, MA, USA). HPLC analyses were carried out on a Symmetry C18 column (3.5 μm, 4.6 × 150 mm; Waters, London, UK), with UV detection of the analytes at 227 nm. The lower limit of quantitation was of 50 ng ml^−1.
Pharmacokinetic parameters were calculated by using a nonlinear fitting program ([Sacchi-Landriani et al, 1983]). The experimental areas under the concentration–time curve (AUCexp) of IDN 5390 were calculated by the trapezoidal rule. Extrapolations to infinity (AUCinf) were obtained by dividing the concentration at the last experimental points by the elimination constant (Ke). The terminal half-lives (T1/2) were calculated using the formula T1/2=0.693/Ke. Clearance (Clp) and volume of distribution (Vd) were obtained from the following relation: Clp=Dose/AUCext and Vd=Clp/Ke, respectively. The bioavailability (F) was derived from the ratio: F=AUCp.o./AUCi.v. 100.

`CC(=O)O[C@@]1([C@@H]2/C(C)=C(/O)C(=O)C3=C(C)[C@@H](OC(=O)[C@H](O)[C@H](CC(C)C)NC(=O)OC(C)(C)C)C[C@@](O)([C@H]2OC(=O)c2ccccc2)C3(C)C)CO[C@@H]1CCO` [IDN 5390, 13-(N-Boc-β-isobutylisoserinyl)-10β-dehydro-C-seco-10-deacetylbaccatin III] gave an IC50 ([1]; IGROV-1, 72 h treatment, cell counting, mean±s.d., three experiments) of 0.0615 ± 0.0045 µg/mL (≈ 0.0781 µM), an IC80 ([1]; IGROV-1/Pt cells, read-out: IC80 (equitoxic concentration)) of 0.3 µg/mL (≈ 0.381 µM) and an IC50 (A2780/DDP cells) of 0.0318 ± 0.0055 µg/mL (≈ 0.0404 µM). It also gave a bioavailability ([2]; in vivo, bioavailability (F)) of 27.3%, a Vd ([2]; in vivo, iv) of 0.21 and an AUC ([2]; in vivo, iv, 120 mg/kg) of 125000 ng·h/mL. It also gave an AUC(0-inf) ([2]; in vivo, iv, 120 mg/kg) of 128000 ng·h/mL, a Cmax ([2]; in vivo, iv, 120 mg/kg) of 161 µg/mL and a Tmax ([2]; in vivo, iv, 120 mg/kg) of 5 min. It also gave a clearance ([2]; in vivo, iv, 120 mg/kg) of 15.5 mL/min/kg, a half-life ([2]; in vivo, iv, 120 mg/kg) of 54 min and an AUC ([2]; in vivo, po, 120 mg/kg) of 34400 ng·h/mL. It also gave an AUC(0-inf) ([2]; in vivo, po, 120 mg/kg) of 35100 ng·h/mL, a Cmax ([2]; in vivo, po, 120 mg/kg) of 25 µg/mL and a Tmax ([2]; in vivo, po, 120 mg/kg) of 30 min. For the same compound, the half-life ([2]; in vivo, po, 120 mg/kg) was 42 min and the half-life ([2]; plasma, 120 mg kg^−1, in mice, read-out: T1/2) was less than 60 min.

— article PMC2377083, “IDN 5390: an oral taxane candidate for protracted treatment schedules” (British Journal of Cancer, 2003)
